Measurements taken from patent US20250326769A1, “HETEROAROMATIC MACROCYCLIC ETHER CHEMOTHERAPEUTIC AGENTS” (Nuvalent, Inc., priority 2022, published 2025).
Read-outs that look alike come from different tables or passages of the source.

How the values were obtained:
ROS1 = ROS1 (Homo sapiens (Human), UniProt P08922); assay: Biochemical kinase assay, ROS1-wt; settings: apparent inhibitory constant, kinase domain, Morrison equation; read-out: ROS1-wt Ki^app
Experimental: (§1) First, 250 nL of compound dissolved in DMSO (100-fold of the desired concentration) was dispensed into a 384-well plate. A 12.5 μL substrate solution containing ATP (2 mM) and fluorogenic phosphorylation substrate AQT0101 ([…] for ALK and ROS, AssayQuant) or AQT0104 (26 μM for TRKB, AssayQuant) in buffer (50 mM HEPES pH 7.5, […], 0.5 mM EGTA, 10 mM MgCl2) was added and mixed thoroughly. Then, a 12.5 μL kinase solution containing ALK (1.5 nM, Carna, 08-518), ALK I1171N/D1203N (4 nM, SignalChem, custom-made), ROS1 (0.6 nM, Carma, 08-163), ROS1-G2032R (0.5 nM, SignalChem, R14-121BG), or TRKB-wt (1.5 nM, SignalChem, N17-11G) kinase domains in buffer ([…] pH 7.5, 0.01% Brij-[…], 0.4 mg/mL BSA, 0.5 mM EGTA, and 10 mM MgCl2) was added and mixed thoroughly. The plate was sealed and read by SpectraMax Paradigm at λ=485 nm every 2 minutes for 120 minutes at 30° C. Initial rates of reaction (v) were calculated from the change in fluorescence intensity over time during the initial, linear portion of the reaction. Finally, apparent inhibitory constants (Ki^app) were determined from regression of v and I (inhibitor concentration) to Morrison Equation (E=enzyme concentration): […]
(§2) Compound potency can be interpreted by binning Ki^app values against the targets: bin A for high potency, Ki^app<50 nM; bin B for medium potency, 50 nM≤Ki^app<500 nM; and bin C for low potency, Ki^app≥500 nM. […] “nd” means not determined.

ROS1-G2032R = ROS1-G2032R (Homo sapiens (Human), UniProt P08922, G2032R); assay: Biochemical kinase assay, ROS1-G2032R; settings: apparent inhibitory constant, kinase domain, Morrison equation; read-out: ROS1-G2032R Ki^app
Chain of ROS1-G2032R (P08922 1945-2222 G2032R): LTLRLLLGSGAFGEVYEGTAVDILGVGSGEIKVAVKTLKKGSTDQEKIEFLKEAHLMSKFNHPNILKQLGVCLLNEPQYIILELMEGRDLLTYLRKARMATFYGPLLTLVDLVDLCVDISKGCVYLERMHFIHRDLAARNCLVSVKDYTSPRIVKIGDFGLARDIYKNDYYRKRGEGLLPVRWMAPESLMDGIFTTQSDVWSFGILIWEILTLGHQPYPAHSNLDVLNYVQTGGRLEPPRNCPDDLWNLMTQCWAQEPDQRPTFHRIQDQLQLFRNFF
Experimental: as §1, §2

[1] = molecular target: Ba/F3 EML4-ALK v1 I1171N/D1203N (Homo sapiens (Human), UniProt Q9HC35+Q9UM73, D1203N/I1171N); assay: Ba/F3 cell proliferation assay, EML4-ALK v1 I1171N/D1203N; format: cell-based; settings: for IC50: Ba/F3 stable cells, 72 hours, CellTiter-Glo; for ETV6-TRKB / EML4-ALK v1 I1171N/D1203N: TRKB selectivity, ratio of Ba/F3 IC50 values
Chain of Ba/F3 EML4-ALK v1 I1171N/D1203N (Q9UM73 other isoform, or with tags, fused parts or gaps I1171N/D1203N): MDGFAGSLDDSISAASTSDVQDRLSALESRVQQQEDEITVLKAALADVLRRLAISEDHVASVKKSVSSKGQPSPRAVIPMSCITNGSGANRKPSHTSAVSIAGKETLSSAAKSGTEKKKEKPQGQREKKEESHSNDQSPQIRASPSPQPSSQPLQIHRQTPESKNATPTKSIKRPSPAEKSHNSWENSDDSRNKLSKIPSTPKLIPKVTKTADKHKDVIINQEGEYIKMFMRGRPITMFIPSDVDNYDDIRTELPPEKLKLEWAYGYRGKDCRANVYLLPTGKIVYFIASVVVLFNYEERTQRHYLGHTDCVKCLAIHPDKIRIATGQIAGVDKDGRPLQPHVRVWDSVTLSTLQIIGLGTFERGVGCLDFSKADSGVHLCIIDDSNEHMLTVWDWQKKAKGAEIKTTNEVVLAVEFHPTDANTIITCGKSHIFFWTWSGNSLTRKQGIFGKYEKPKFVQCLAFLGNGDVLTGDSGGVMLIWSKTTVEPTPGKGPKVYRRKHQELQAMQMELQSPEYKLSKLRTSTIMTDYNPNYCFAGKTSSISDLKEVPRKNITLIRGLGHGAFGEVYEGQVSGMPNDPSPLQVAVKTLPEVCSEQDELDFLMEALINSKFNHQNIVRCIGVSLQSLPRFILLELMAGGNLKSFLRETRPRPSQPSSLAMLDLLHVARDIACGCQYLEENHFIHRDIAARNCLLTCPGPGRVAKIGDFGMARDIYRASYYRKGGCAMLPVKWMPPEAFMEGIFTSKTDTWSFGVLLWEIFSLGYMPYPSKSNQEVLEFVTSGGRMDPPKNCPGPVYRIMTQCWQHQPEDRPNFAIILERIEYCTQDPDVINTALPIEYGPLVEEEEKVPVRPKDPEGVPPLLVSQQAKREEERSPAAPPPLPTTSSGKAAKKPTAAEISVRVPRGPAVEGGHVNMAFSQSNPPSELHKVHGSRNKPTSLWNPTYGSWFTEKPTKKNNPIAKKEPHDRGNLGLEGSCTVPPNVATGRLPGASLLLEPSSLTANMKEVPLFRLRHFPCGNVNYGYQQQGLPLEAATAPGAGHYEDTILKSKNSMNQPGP
Summary of the method: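 Viability read by CellTiter-Glo luminescence after 72 h exposure to a 3-fold compound dilution series, with IC50 from four-parameter logistic regression. Cells were Ba/F3 rendered IL-3-independent through retroviral expression of EML4-ALK v1 I1171N/D1203N, puromycin-selected.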

Ba/F3 ETV6-TRKB = Ba/F3 ETV6-TRKB (Homo sapiens, UniProt Q16620); assay: Ba/F3 cell proliferation assay, ETV6-TRKB; format: cell-based
Chain of Ba/F3 ETV6-TRKB (Q16620 32-822 limits assumed, change not shown): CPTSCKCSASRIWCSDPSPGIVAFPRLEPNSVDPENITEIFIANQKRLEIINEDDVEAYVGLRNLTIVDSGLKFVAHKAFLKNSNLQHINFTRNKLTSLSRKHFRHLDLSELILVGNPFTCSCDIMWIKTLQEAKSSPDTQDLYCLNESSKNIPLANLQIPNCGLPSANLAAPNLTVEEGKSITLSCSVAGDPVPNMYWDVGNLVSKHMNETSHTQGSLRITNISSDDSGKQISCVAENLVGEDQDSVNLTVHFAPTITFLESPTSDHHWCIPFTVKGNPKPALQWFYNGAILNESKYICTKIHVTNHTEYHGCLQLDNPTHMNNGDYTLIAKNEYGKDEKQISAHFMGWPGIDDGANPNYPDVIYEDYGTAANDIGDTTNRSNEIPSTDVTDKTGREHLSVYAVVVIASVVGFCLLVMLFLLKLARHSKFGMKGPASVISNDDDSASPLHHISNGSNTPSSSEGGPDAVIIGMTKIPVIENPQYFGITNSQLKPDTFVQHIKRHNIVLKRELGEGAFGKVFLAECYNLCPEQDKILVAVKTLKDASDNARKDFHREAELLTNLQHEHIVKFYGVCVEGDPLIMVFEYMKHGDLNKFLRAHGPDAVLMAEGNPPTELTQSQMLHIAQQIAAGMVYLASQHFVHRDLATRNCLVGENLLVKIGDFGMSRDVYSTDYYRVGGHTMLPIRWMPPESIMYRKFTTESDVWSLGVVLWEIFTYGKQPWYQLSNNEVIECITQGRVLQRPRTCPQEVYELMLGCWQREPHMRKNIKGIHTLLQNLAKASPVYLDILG
Summary of the method: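 Growth inhibition after 72 h compound exposure (3-fold series) was measured by CellTiter-Glo in IL-3-independent Ba/F3 cells stably expressing ETV6-TRKB. A four-parameter logistic fit of percent inhibition versus concentration gave IC50.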

Ba/F3 EML4-ALK v1 I1171N = Ba/F3 EML4-ALK v1 I1171N (Homo sapiens (Human), UniProt Q9HC35+Q9UM73, I1171N); assay: Ba/F3 cell proliferation assay, EML4-ALK v1 I1171N; format: cell-based; settings: for IC50: Ba/F3 stable cells, 72 hours, CellTiter-Glo; for ETV6-TRKB / EML4-ALK v1 I1171N: TRKB selectivity, ratio of Ba/F3 IC50 values
Chain of Ba/F3 EML4-ALK v1 I1171N (Q9UM73 other isoform, or with tags, fused parts or gaps I1171N): as the sequence (Q9UM73 other isoform, or with tags, fused parts or gaps I1171N/D1203N) above, with N642D counted along it
Summary of the method: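 Ba/F3 cells stably transformed with retroviral EML4-ALK v1 I1171N, selected by IL-3 withdrawal and puromycin, grown IL-3-free. Compounds added as 3-fold dilution series, 72 h incubation; viability by CellTiter-Glo luminescence. IC50 from percent inhibition by four-parameter logistic fit, binned A/B/C.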

TRKB-wt = TRKB-wt (Homo sapiens (Human), UniProt Q16620); assay: Biochemical kinase assay, TRKB-wt; settings: apparent inhibitory constant, kinase domain, Morrison equation; read-out: TRKB-wt Ki^app
Chain of TRKB-wt (Q16620 538-807): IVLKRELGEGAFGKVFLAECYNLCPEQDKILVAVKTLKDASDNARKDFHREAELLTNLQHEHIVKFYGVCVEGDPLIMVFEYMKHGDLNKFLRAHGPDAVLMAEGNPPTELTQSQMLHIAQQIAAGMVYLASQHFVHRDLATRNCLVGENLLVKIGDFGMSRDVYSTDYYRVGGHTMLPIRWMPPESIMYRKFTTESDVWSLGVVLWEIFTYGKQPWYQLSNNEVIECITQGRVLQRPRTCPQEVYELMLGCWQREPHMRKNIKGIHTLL
Summary of the method: (§3)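 Kinase domains (in enzyme solution: ALK I1171N/D1203N 4 nM, ROS1 0.6 nM, ROS1-G2032R 0.5 nM, TRKB 1.5 nM) were mixed with substrate solution holding 2 mM ATP and 26 μM AQT0101 (ALK, ROS1) or AQT0104 (TRKB). Initial rates from 120-min fluorescence kinetics at 30 °C were fitted to the Morrison equation (Ki^app).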

ALK I1171N/D1203N = ALK I1171N/D1203N (Homo sapiens (Human), UniProt Q9UM73, D1203N/I1171N); assay: Biochemical kinase assay, ALK I1171N/D1203N; settings: apparent inhibitory constant, kinase domain, Morrison equation; read-out: ALK-I1171N-D1203N Ki^app
Chain of ALK I1171N/D1203N (Q9UM73 1116-1392 I1171N/D1203N): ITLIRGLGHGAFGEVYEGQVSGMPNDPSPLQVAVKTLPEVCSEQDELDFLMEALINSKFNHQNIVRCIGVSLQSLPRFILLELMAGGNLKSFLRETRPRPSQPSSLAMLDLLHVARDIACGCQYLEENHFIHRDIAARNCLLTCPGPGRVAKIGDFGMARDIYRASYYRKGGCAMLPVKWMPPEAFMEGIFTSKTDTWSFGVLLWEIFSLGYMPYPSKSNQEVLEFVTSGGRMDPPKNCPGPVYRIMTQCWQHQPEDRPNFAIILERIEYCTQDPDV
Summary of the method: as §3

[2] = Ba/F3 stable cells, 72 hours, CellTiter-Glo; read-out: ETV6-TRKB IC50

Chain of ROS1 (P08922 1945-2222): as the sequence (P08922 1945-2222 G2032R) above, with R88G counted along it

Structure (SMILES) | Ki (ROS1) | Ki (ROS1-G2032R) | IC50 [1] | ETV6-TRKB / EML4-ALK v1 I1171N/D1203N [1] | IC50 (Ba/F3 ETV6-TRKB; [2]) | IC50 (Ba/F3 EML4-ALK v1 I1171N) | ETV6-TRKB / EML4-ALK v1 I1171N (Ba/F3 EML4-ALK v1 I1171N) | Ki (TRKB-wt) | Ki (ALK I1171N/D1203N) | IC50 (Ba/F3 ETV6-TRKB; read-out: ETV6-TRKB IC50; Ba/F3 stable cells, 72 hours, CellTiter-Glo)
CCn1nc(C#N)c2c1-c1cnc(N)c(c1)O[C@H](C)c1cc(F)ccc1-c1nn(C)cc1C2 [Example 4, (R)-22-amino-3-ethyl-16-fluoro-10-methyl-19-methyl-20-oxa-3,4,10,11,23-pentaazapentacyclo[19.3.1.0^2,^6.0^8,^12.0^13,^18]pentacosa-1(24),2(6),4,8,11,13,15,17,21(25),22-decaene-5-carbonitrile] | < 50 nM | < 50 nM | > 500 nM | D (bin D for low selectivity, ratio<1) | 50 to 500 nM | 50 to 500 nM | C (bin C for moderate selectivity, ratio≥1 but<10) | – | – | –
CCn1nc(C(=O)N(C)C)c2c1-c1cnc(N)c(c1)O[C@H](C)c1cc(F)ccc1-c1nn(C)cc1C2 [Example 7, N,N-dimethyl-(R)-22-amino-3-ethyl-16-fluoro-10-methyl-19-methyl-20-oxa-3,4,10,11,23-pentaazapentacyclo[19.3.1.0^2,6.0^8,12.0^13,18]pentacosa-1(24),2(6),4,8,11,13,15,17.21(25),22-decaene-5-carboxamide] | < 50 nM | < 50 nM | 0.1 to 50 nM | C (bin C for moderate selectivity, ratio≥1 but<10) | 50 to 500 nM | 0.1 to 50 nM | B (bin B for high selectivity, ratio≥10-fold but<30) | < 50 nM | < 50 nM | –
C[C@H]1Oc2cc(cnc2N)-c2c(c(C(=O)N(C)C)nn2CC2CC2)Cc2cn(C)nc2-c2ccc(F)cc21 [Example 8, N,N-dimethyl-(R)-22-amino-3-(cyclopropylmethyl)-16-fluoro-10-methyl-19-methyl-20-oxa-3,4,10,11,23-pentaazapentacyclo[19.3.1.0^2,^6.0^8,^12.0^13,^18]pentacosa-1(24),2(6),4,8,11,13,15, 17,21(25),22-decaene-5-carboxamide] | < 50 nM | < 50 nM | 0.1 to 50 nM | A (bin A for very high selectivity, ratio≥30-fold) | > 500 nM | 0.1 to 50 nM | A (bin A for very high selectivity, ratio≥30-fold) | 50 to 500 nM | < 50 nM | –
C[C@H]1Oc2cc(cnc2N)-c2c(c(C(=O)N3CCC3)nn2CC2CC2)Cc2cn(C)nc2-c2ccc(F)cc21 [Example 9, {(R)-22-amino-3-(cyclopropylmethyl)-16-fluoro-10-methyl-19-methyl-20-oxa-3,4,10,11,23-pentaazapentacyclo[19.3.1.0^2,^6.0^8,^12.0^13,^18]pentacosa-1(24),2(6),4,8,11,13,15,17,21(25),22-decaen-5-yl}(1-azetidinyl)methanone] | < 50 nM | < 50 nM | 50 to 500 nM | B (bin B for high selectivity, ratio≥10-fold but<30) | > 500 nM | – | – | 50 to 500 nM | < 50 nM | –
C[C@H]1Oc2cc(cnc2N)-c2c(C#N)nn(C(=O)N(C)C)c2Cc2cccnc2-c2ccc(F)cc21 [Example 27, N,N-dimethyl-(R)-23-amino-3-cyano-17-fluoro-20-methyl-21-oxa-4,5,12,24-tetraazapentacyclo[20.3.1.0^2,^6.0^8,^13.0^14,^19]hexacosa-1(25),2(6),3,8(13),9,11,14,16,18,22(26),23-undecaene-5-carboxamide] | < 50 nM | < 50 nM | 0.1 to 50 nM | A (bin A for very high selectivity, ratio≥30-fold) | – | 0.1 to 50 nM | A (bin A for very high selectivity, ratio≥30-fold) | < 50 nM | < 50 nM | 50 to 500 nM
C[C@H]1Oc2cc(cnc2N)-c2c(c(C(=O)N(C)C)nn2CC2CC2)Cc2cn(C)nc2-c2c(F)cc(F)cc21 [Example 32, N,N-dimethyl-(R)-22-amino-3-(cyclopropylmethyl)-14,16-difluoro-10-methyl-19-methyl-20-oxa-3,4,10,11,23-pentaazapentacyclo[19.3.1.0^2,^6.0^8,^12.0^13,^18]pentacosa-1(24),2(6),4,8,11,13,15,17,21(25),22-decaene-5-carboxamide] | – | – | 0.1 to 50 nM | A (bin A for very high selectivity, ratio≥30-fold) | > 500 nM | 0.1 to 50 nM | A (bin A for very high selectivity, ratio≥30-fold) | ≥ 500 nM | < 50 nM | –
C[C@H]1Oc2cc(cnc2N)-c2c(c(C(=O)N(C)C)nn2C2CCC2)Cc2cn(C)nc2-c2ccc(F)cc21 [Example 35, N,N-dimethyl-(R)-22-amino-3-cyclobutyl-16-fluoro-10-methyl-19-methyl-20-oxa-3,4,10,11,23-pentaazapentacyclo[19.3.1.0^2,^6.0^8,^12.0^13,^18]pentacosa-1(24),2(6),4,8,11,13,15,17,21(25),22-decaene-5-carboxamide] | – | – | 0.1 to 50 nM | A (bin A for very high selectivity, ratio≥30-fold) | > 500 nM | 0.1 to 50 nM | A (bin A for very high selectivity, ratio≥30-fold) | 50 to 500 nM | < 50 nM | –
C[C@H]1Oc2cc(cnc2N)-c2c(c(C(=O)N(C)C)nn2CC2CC2)Cc2cccnc2-c2c(F)cc(F)cc21 [Example 45, N,N-dimethyl-(R)-23-amino-3-(cyclopropylmethyl)-15,17-difluoro-20-methyl-21-oxa-3,4,12,24-tetraazapentacyclo[20.3.1.0^2,^6.0^8,^13.0^14,^19]hexacosa-1(25),2(6),4,8(13),9,11,14,16, 18,22(26),23-undecaene-5-carboxamide] | – | – | 0.1 to 50 nM | A (bin A for very high selectivity, ratio≥30-fold) | > 500 nM | 50 to 500 nM | B (bin B for high selectivity, ratio≥10-fold but<30) | ≥ 500 nM | < 50 nM | –
C[C@H]1Oc2cc(cnc2N)-c2c(c(C#N)nn2CC2CC2)Cc2cccnc2-c2ccc(F)cc21 [Example 66, (R)-23-amino-3-(cyclopropylmethyl)-17-fluoro-20-methyl-21-oxa-3,4,12,24-tetraazapentacyclo[20.3.1.0^2,^6.0^8,^13.0^14,^19]hexacosa-1(25),2(6),4,8(13),9,11,14,16,18,22(26),23-undecaene-5-carbonitrile] | < 50 nM | < 50 nM | > 500 nM | – | – | 50 to 500 nM | – | – | – | –
